# Test: Intrinsic active substance release in water (USP <1087> intrinsic dissolution)
# Assay type: physicochemical
# Settings: demineralized water, 37° C.±0.5° C.; gradient of cumulative release up to 10% released
# Description: The intrinsic release of each of the two active substances is calculated from the gradient of the cumulative active substance release up to and including the time at which 10% of the […] have been released. It is given below as the release rate in mg·min^−1·cm^−2.
row,SMILES,Intrinsic release in water (release rate)
1,"COc1cccc([C@@]2(O)CCCC[C@@H]2CN(C)C)c1.Cl (racemic) [Tramadol hydrochloride, (1RS,2RS)-2-[(dimethylamino)methyl]-1-(3-methoxyphenyl)cyclohexanol hydrochloride]",21 mg · min^−1 · cm^−2
2,"COc1cccc(C2(O)CCCCC2CN(C)C)c1.O=C1NS(=O)(=O)c2ccccc21 (centres unmarked) [Tramadol saccharinate, tramadol saccharinate]",2 mg · min^−1 · cm^−2

# Reference: patent US6576260B2 (Gruenenthal GmbH, priority 1999, dated 2003)
